Values quoted from earlier work in patent US20120258914A1, “COACERVATION PROCESS” (Alkermes, Inc., priority 2007, published 2012).

With exendin-4 as the substance, how does the secretion of insulin (in the presence of elevated blood glucose concentrations, but not during hypoglycemia) read?
The secretion of insulin was “stimulate secretion of insulin”.

And the “food intake and body weight” value (in vivo)?
The value was “affect food intake and body weight”.

And the gastric emptying (in vivo)?
The gastric emptying was “slow gastric emptying”.

And the glucagon secretion (in vivo)?
The glucagon secretion was “suppress glucagon secretion”.
